Measurements published in US10413583B2, “Synthetic substrates for enzymes that catalyze reactions of modified cysteines and related methods” (The University of Chicago, priority 2016, dated 2019).

Experiments:
HEPG2 cells = experiment: Fluorescence imaging of RDP-1 with HEPG2 cells (PalmB, palmitate); type: cell-based, human; settings: 40 μM PalmB 30 min, 1 μM RDP-1
Method: HEPG2 were plated with […] of DMEM (Gibco, Gaithersburg, Md., United States of America; High Glucose, Glutamax, 10% FBS) a four well chambered imaging dish (D35C4-20-1.5-N, Cellvis, Mountain View, Calif., United States of America) which were precoated with 4 μg Poly-D-lysine (30-70 KDa, Alfa Aesar, Haverhill, Mass., United States of America) for 2 h at room temperature or overnight at 4° C. and grown to ca. 80% confluence prior to imaging. 30 min before the addition of the RDP, the cell culture media was removed and cells were washed with 500 μL of serum-free DMEM (Gibco, Gaithersburg, Md., United States of America; High Glucose, Glutamax, no FBS). The media was then replaced with 500 μL of serum-free DMEM containing 100 nM Mitotracker Deep Red (Thermo Fisher Scientific, Waltham, Mass., United States of America) to assist in focusing and processing) and either 0.1% DMSO carrier as a control or Palm B in DMSO and incubated for 30 min at 37° C. and 5% CO2. The media was removed, the cells were washed with 500 μL of Live Cell Imaging Solution (Thermo Fisher Scientific, Waltham, Mass., United States of America), and 500 μL of 1 μM RDP-1 along with the Palm B or DMSO as control in Live Cell Imaging Solution was added to each well. […]

[1] = Log P analysis of DPP-1/4/5; type: physicochemical; settings: 1-octanol / Hepes buffer
Method: 2 μL of 1 mM of DPP-1/4/5 was dissolved in 500 μL of Hepes buffer in two 1.5 mL tubes. To one tube, 500 μL of 1-octanol was added and the tube was shaken for 10 min followed by keeping it undisturbed for 10 min. Then, 10 μL of aqueous phase from each tube was placed in a 96 well plate reader. To this, 190 μL of 1M NaOH was added and fluorescence intensities (λex 490/20 nm, λem 545/20 nm, Gain 80, read from bottom with height 4.5 mm, and sweep method) were measured at 15 second time intervals for 1 hr at room temperature. The fluorescence read out at saturation was used to calculate Log P values by following equation: log P=log(Foct/Faq) Foct=Ftotal−Faq where: Foct=Fluorescence of 1-octanol fraction; Faq=Fluorescence of the aqueous fraction after treatment with 1-octanol, and Ftotal=Fluorescence of the aqueous fraction with no treatment with 1-octanol.

APT1 = target: T1, APT1 (Homo sapiens, UniProt O75608); experiment: In vitro kinetic assays and emission spectra of DPP-1, DPP-4, DPP-5 with APT1 (no detergent); type: biochemical
T1 construct: His-tag; made in house; host or cells: E. coli ROSETTA DE3
T1 sequence (O75608 whole entry): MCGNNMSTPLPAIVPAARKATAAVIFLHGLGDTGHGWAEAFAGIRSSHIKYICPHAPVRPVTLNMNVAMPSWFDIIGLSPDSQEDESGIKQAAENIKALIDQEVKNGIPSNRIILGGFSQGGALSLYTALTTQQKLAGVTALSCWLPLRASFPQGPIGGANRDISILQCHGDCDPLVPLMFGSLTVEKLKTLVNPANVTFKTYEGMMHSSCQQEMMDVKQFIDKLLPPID
Method: 150 μL of 2 μM DPP-1, DPP4 or DPP-5 in HEPES (20 mM, pH=7.4, 150 mM NaCl) were added to a 96-well optical bottom plate (Nunc 265301, Fisher Scientific, Pittsburgh, Pa., United States of America) at room temperature. 150 μL of either HEPES buffer alone or HEPES buffer containing 100 nM APT1 or APT2 (purification using previous methods), was added using a multi-channel pipette, resulting in a final concentration of 1 μM DPP-1/DPP4/DPP-5 and 50 nM APT1 or APT2. Fluorescence intensities (λex 490/20 nm, λem 545/20 nm, Gain 80, read from bottom with height 4.5 mm, and sweep method) were measured at 15 s time intervals for 30 min at 37° C. Following the 30 min kinetic run, emission spectra were obtained (λex 480/20 nm, Aem515-700 nm, Gain 80, read from bottom with height 4.5 mm, and sweep method).

SMILES | decrease in deacylation of RDP-1 (HEPG2 cells) | LogP [1] | enhancement in intensity of fluorescence signal (APT1; 1 μM probe, 50 nM APT1, 30 minutes, absence of detergents) | in vitro kinetics (APT1; APT1, absence of detergents)
CCCCCCCCCC[C@@H]1C(=O)O[C@H]1CCc1ccc(OC)c(OC)c1 [PalmB, palmostatin B] | about 60% |  |  | 
CCCCCCCCCCCCCCCC(=O)SC[C@@H](C(=O)NC)N(C)C(=O)Oc1ccc2c(c1)Oc1cc(N3CCN(C(=O)CCC(=O)O)CC3)ccc1C21OC(=O)c2ccccc21 (stereo partly shown) [DPP-5] |  | 0.79 | 350 fold | more rapid turn-on response
